Holding throughout (type): in vivo
In experiment [1] the test system is Echinochloa crus-galli (ECHCG). Kind of experiment: Post-emergence herbicidal glasshouse test. As to conditions: for % phytotoxicity ECHCG: comparative post-emergence test; for percentage damage caused to the plant, five-point scale, ECHCG: post-emergence, 250 g/ha, 13 days after application. Here is the method:
(§1) Seeds of a variety of test species are shown in standard soil in pots Amaranthus retoflexus (AMARE), Ipomoea hederacea (IPOHE), Solanum nigrum (SOLNI), Lolium perenne (LOLPE). Echinochloa crus-galli (ECHCG), Setaria faberi (SETFA)). After cultivation for one day (pre-emergence) or after 8 days cultivation (post-emergence) under controlled conditions in a glasshouse (at 24/16° C., day/night; 14 hours light; 65% humidity), the plants are sprayed with an aqueous spray solution derived from the formulation of the technical active ingredient in acetone/water (50:50) solution containing 0.5% Tween 20 (polyoxyethylene sorbitan monolaurate, CAS RN 9005-64-5). Compounds are applied at 250 g/ha unless otherwise stated. The test plants are then grown in a glasshouse under controlled conditions in a glasshouse (at 24/16° C., day/night; 14 hours light; 65% humidity) and watered twice daily. After 13 days for pre and post-emergence, the test is evaluated for the percentage damage caused to the plant. The biological activities are shown in the following table on a five-point scale (5=81-100%; 4=61-80%; 3=41-60%; 2=21-40%; 1=0-20%).
(§2) Using the experimental conditions outlined above, a further test is conducted to compare the herbicidal properties of the difluro containing compound (1.014) with a representative compound (C1) referred to in GB901553. The compounds are applied at 1000 g/ha and 500 g/ha. The test is evaluated for the percentage damage caused to the plant (% phytotoxicity).

Experiment [2] deals with Amaranthus retoflexus (AMARE). The experiment can be described thus: Post-emergence herbicidal glasshouse test. The settings on record: for % phytotoxicity AMARE: comparative post-emergence test; for percentage damage caused to the plant, five-point scale, AMARE: post-emergence, 250 g/ha, 13 days after application. Here is the method:
as §1, §2

The test system of experiment [3] is Lolium perenne (LOLPE). Kind of experiment: Post-emergence herbicidal glasshouse test. As to conditions: for % phytotoxicity LOLPE: comparative post-emergence test; for percentage damage caused to the plant, five-point scale, LOLPE: post-emergence, 250 g/ha, 13 days after application. Here is the method:
as §1, §2

Experiment [4] relates to Setaria faberi (SETFA). Kind of experiment: Post-emergence herbicidal glasshouse test. The settings on record: for % phytotoxicity SETFA: comparative post-emergence test; for percentage damage caused to the plant, five-point scale, SETFA: post-emergence, 250 g/ha, 13 days after application. Here is the method:
as §1, §2

Experiment [5] has as its system Ipomoea hederacea (IPOHE). Kind of experiment: Post-emergence herbicidal glasshouse test. As to conditions: for % phytotoxicity IPOHE: comparative post-emergence test; for percentage damage caused to the plant, five-point scale, IPOHE: post-emergence, 250 g/ha, 13 days after application. Here is the method:
as §1, §2

The subject of experiment [6] is Solanum nigrum (SOLNI). The experiment can be described thus: Post-emergence herbicidal glasshouse test. As to conditions: for % phytotoxicity SOLNI: comparative post-emergence test; for percentage damage caused to the plant, five-point scale, SOLNI: post-emergence, 250 g/ha, 13 days after application. Here is the method:
as §1, §2

Experiment [7] concerns Echinochloa crus-galli (ECHCG). Kind of experiment: Pre-emergence herbicidal glasshouse test. The settings on record: for % phytotoxicity ECHCG: comparative pre-emergence test; for percentage damage caused to the plant, five-point scale, ECHCG: pre-emergence, 250 g/ha, 13 days after application. Here is the method:
as §1, §2

Experiment [8] deals with Amaranthus retoflexus (AMARE). The experiment can be described thus: Pre-emergence herbicidal glasshouse test. The settings on record: for % phytotoxicity AMARE: comparative pre-emergence test; for percentage damage caused to the plant, five-point scale, AMARE: pre-emergence, 250 g/ha, 13 days after application. Here is the method:
as §1, §2

Experiment [9] concerns Lolium perenne (LOLPE). Kind of experiment: Pre-emergence herbicidal glasshouse test. As to conditions: for % phytotoxicity LOLPE: comparative pre-emergence test; for percentage damage caused to the plant, five-point scale, LOLPE: pre-emergence, 250 g/ha, 13 days after application. Here is the method: as §1, §2
Experiment [10] deals with Setaria faberi (SETFA). The experiment can be described thus: Pre-emergence herbicidal glasshouse test. As to conditions: for % phytotoxicity SETFA: comparative pre-emergence test; for percentage damage caused to the plant, five-point scale, SETFA: pre-emergence, 250 g/ha, 13 days after application. Here is the method:
as §1, §2

Experiment [11] concerns Ipomoea hederacea (IPOHE). The experiment can be described thus: Pre-emergence herbicidal glasshouse test. As to conditions: for % phytotoxicity IPOHE: comparative pre-emergence test; for percentage damage caused to the plant, five-point scale, IPOHE: pre-emergence, 250 g/ha, 13 days after application. Here is the method: as §1, §2
Experiment [12] relates to Solanum nigrum (SOLNI). Kind of experiment: Pre-emergence herbicidal glasshouse test. As to conditions: for % phytotoxicity SOLNI: comparative pre-emergence test; for percentage damage caused to the plant, five-point scale, SOLNI: pre-emergence, 250 g/ha, 13 days after application. Here is the method:
as §1, §2

As for `O=C(O)C(Cl)(Cl)c1cccc(Cl)c1Cl` [Compound C1, reference compound], the “% phytotoxicity ECHCG” value worked out at 0% in experiment [1] (500 g/ha), 10% in experiment [1] (1000 g/ha), 0% in [7] (500 g/ha) and 0% in experiment [7] (1000 g/ha). In addition, the “% phytotoxicity AMARE” value in [2] (500 g/ha), in [2] (1000 g/ha), in experiment [8] (500 g/ha) and in [8] (1000 g/ha) was 80% throughout. Further, the “% phytotoxicity LOLPE” value in the experiment with Lolium perenne (LOLPE) [3] (500 g/ha) is reported as 0%; in the experiment with Lolium perenne (LOLPE) [3] (1000 g/ha), 20%; in the experiment on Lolium perenne (LOLPE) [9] (500 g/ha), 0%; in the experiment with Lolium perenne (LOLPE) [9] (1000 g/ha), 0%. In addition, the “% phytotoxicity SETFA” value in the experiment on Setaria faberi (SETFA) [4] (500 g/ha) stood at 0%; with Setaria faberi (SETFA) [4] (1000 g/ha) it was 10%; in the experiment with Setaria faberi (SETFA) [10] (500 g/ha) it was 0%; with Setaria faberi (SETFA) [10] (1000 g/ha), 0%. The “% phytotoxicity IPOHE” value in experiment [5] (500 g/ha) is 70%; in [5] (1000 g/ha), 80%; in experiment [11] (500 g/ha), 30%; in experiment [11] (1000 g/ha) it was 60%. Further, the “% phytotoxicity SOLNI” value was found to be 60% in the experiment on Solanum nigrum (SOLNI) [6] (500 g/ha), 70% in the experiment on Solanum nigrum (SOLNI) [6] (1000 g/ha), 60% with Solanum nigrum (SOLNI) [12] (500 g/ha) and 70% with Solanum nigrum (SOLNI) [12] (1000 g/ha).
As for `O=C(O)C(F)(F)c1ccc(Cl)cc1Cl` [Compound 1.004], the “percentage damage caused to the plant, five-point scale, ECHCG” value in experiment [1] and in experiment [7] was 1 (1=0-20%) in each case. Further, the “percentage damage caused to the plant, five-point scale, AMARE” value in [2] and in [8] was 4 (4=61-80%) in each case. Further, the “percentage damage caused to the plant, five-point scale, LOLPE” value with Lolium perenne (LOLPE) [3] and in the experiment on Lolium perenne (LOLPE) [9] was 1 (1=0-20%) each time. For the same compound, the “percentage damage caused to the plant, five-point scale, SETFA” value in the experiment on Setaria faberi (SETFA) [4] and in the experiment with Setaria faberi (SETFA) [10] was 1 (1=0-20%) each time. The “percentage damage caused to the plant, five-point scale, IPOHE” value in experiment [5] and in [11] was 4 (4=61-80%) throughout. Moreover, the “percentage damage caused to the plant, five-point scale, SOLNI” value is given as 4 (4=61-80%) in the experiment on Solanum nigrum (SOLNI) [6] and 3 (3=41-60%) in the experiment on Solanum nigrum (SOLNI) [12].
As to `O=C(O)C(F)(F)c1cc(Cl)cc(Cl)c1` [Compound 1.007], the “percentage damage caused to the plant, five-point scale, ECHCG” value in experiment [1] and in experiment [7] was 1 (1=0-20%) each time. Further, the “percentage damage caused to the plant, five-point scale, AMARE” value in experiment [2] is 3 (3=41-60%); in experiment [8], 1 (1=0-20%). Further, the “percentage damage caused to the plant, five-point scale, LOLPE” value with Lolium perenne (LOLPE) [3] and in the experiment on Lolium perenne (LOLPE) [9] was 1 (1=0-20%) throughout. The “percentage damage caused to the plant, five-point scale, SETFA” value in the experiment with Setaria faberi (SETFA) [4] and in the experiment with Setaria faberi (SETFA) [10] was 1 (1=0-20%) in each case. In addition, the “percentage damage caused to the plant, five-point scale, IPOHE” value in experiment [5] and in experiment [11] was 1 (1=0-20%) in each case. The “percentage damage caused to the plant, five-point scale, SOLNI” value with Solanum nigrum (SOLNI) [6] is recorded as 3 (3=41-60%); with Solanum nigrum (SOLNI) [12], 1 (1=0-20%).

(Values after patent US12319648B2, “Fluorinated phenylacetic acid derivatives in a weed control method” (SYNGENTA CROP PROTECTION AG, priority 2019, dated 2025).)
